Source: patent US8618138B2, “Indole amide derivatives and related compounds for use in the treatment of neurodegenerative diseases” (Katholieke Universiteit Leuven, K.U. Leuven R&D, priority 2009, dated 2013)

test system: M17-TAU P301L cells; assay: TAU cytotoxicity assay: LDH leakage of retinoic acid incubated M17-TAU P301L cells; assay type: cell-based, human; details: Homo sapiens, 168 h, reduction of LDH activity of retinoic acid incubated M17-TAU P301L cells, 7 days
In short: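 M17 neuroblastoma cells stably expressing human TAU P301L, seeded at 2500 cells/cm2 in Optimem with 1% FCS, then given 2.5 μM retinoic acid (stock before 1:1 addition) and grown 7 days at 37 °C. Cytotoxicity read as LDH leaked into medium; EC50 derived from these measurements.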

Compared with `CCc1ccc(N2CCC(C(=O)NCCc3c[nH]c4ccc(C)cc34)C2=O)cc1` (stereo not shown) [Example D48, 1-(4-ethylphenyl)-N-(2-(5-methyl-1H-indol-3-yl)ethyl)-2-oxopyrrolidine-3-carboxamide], `CCc1ccc(N2CCC(C(=O)NCCc3c[nH]c4ccc(Cl)cc34)C2=O)cc1` (stereo not shown) [Example D40, N-(2-(5-chloro-1H-indol-3-yl)ethyl)-1-(4-ethylphenyl)-2-oxopyrrolidine-3-carboxamide] is 1.5-fold lower in EC50: 138 nM for the first, 91 nM for the second.

Compared with `Cc1ccc(N2CCC(C(=O)NCCc3c[nH]c4ccc(Cl)cc34)C2=O)cc1C` (stereo not shown) [Example D143, N-(2-(5-chloro-1H-indol-3-yl)ethyl)-1-(3,4-dimethylphenyl)-2-oxopyrrolidine-3-carboxamide], `Cc1ccc(N2CCC(C(=O)NCCc3c[nH]c4ccc(Cl)cc34)C2=O)cc1F` (stereo not shown) [Example D152, N-(2-(5-chloro-1H-indol-3-yl)ethyl)-1-(3-fluoro-4-methylphenyl)-2-oxopyrrolidine-3-carboxamide] is 10-fold lower in EC50: 1020 nM for the first, 99 nM for the second. The second is the more potent here.

Going from `O=C(NCCc1c[nH]c2ccc(Cl)cc12)c1cc(CN2CCCC2)on1` [Example D61, N-(2-(5-chloro-1H-indol-3-yl)ethyl)-5-(pyrrolidin-1-ylmethyl)isoxazole-3-carboxamide] to `CCOCc1cc(C(=O)NCCc2c[nH]c3ccc(Cl)cc23)no1` [Example D123, N-(2-(5-chloro-1H-indol-3-yl)ethyl)-5-(ethoxymethyl)isoxazole-3-carboxamide], the EC50 falls from 227 nM to 19 nM (12-fold).

`COc1ccc(N2CCC(C(=O)NCCc3c[nH]c4ccc(Cl)cc34)C2=O)cc1` (stereo not shown) [Example D70, N-(2-(5-chloro-1H-indol-3-yl)ethyl)-1-(4-methoxyphenyl)-2-oxopyrrolidine-3-carboxamide] and `O=C(NCCc1c[nH]c2ccc(Cl)cc12)C1CCN(c2ccccc2)C1=O` (stereo not shown) [Example D64, N-(2-(5-chloro-1H-indol-3-yl)ethyl)-2-oxo-1-phenylpyrrolidine-3-carboxamide] are within 1.5-fold of each other in EC50: 408 nM for the first, 313 nM for the second.

Going from `O=C(NCCc1c[nH]c2ccc(Cl)cc12)C1CCN(C2CCCCC2)C1=O` (stereo not shown) [Example D76, N-(2-(5-chloro-1H-indol-3-yl)ethyl)-1-cyclohexyl-2-oxopyrrolidine-3-carboxamide] to `O=C(NCCc1c[nH]c2ccc(Cl)cc12)C1CCN(C2CC2)C1=O` (stereo not shown) [Example D149, N-(2-(5-chloro-1H-indol-3-yl)ethyl)-1-cyclopropyl-2-oxopyrrolidine-3-carboxamide], the EC50 rises from 571 nM to 2090 nM (3.7-fold). The first is the more potent here.

`Cc1ccc(Cc2nc(C(=O)NCCc3c[nH]c4ccc(Cl)cc34)no2)cc1` [Example D181, N-(2-(5-chloro-1H-indol-3-yl)ethyl)-5-(4-methylbenzyl)-1,2,4-oxadiazole-3-carboxamide] and `O=C(NCCc1c[nH]c2ccc(Cl)cc12)c1noc(Cc2ccc(Cl)cc2)n1` [Example D172, N-(2-(5-chloro-1H-indol-3-yl)ethyl)-5-(4-chlorobenzyl)-1,2,4-oxadiazole-3-carboxamide] are within 1.5-fold of each other in EC50: 48 nM for the first, 34 nM for the second.

Compared with `O=C(NCCc1c[nH]c2ccc(Cl)cc12)C1CCN(c2ccc(C(F)(F)F)c(F)c2)C1=O` (stereo not shown) [Example D150, N-(2-(5-chloro-1H-indol-3-yl)ethyl)-1-(3-fluoro-4-(trifluoromethyl)phenyl)-2-oxopyrrolidine-3-carboxamide], `O=C(NCCc1c[nH]c2ccc(Cl)cc12)c1cc(-c2ccc(Cl)cc2)oc1C(F)(F)F` [Example D68, N-(2-(5-chloro-1H-indol-3-yl)ethyl)-5-(4-chlorophenyl)-2-(trifluoromethyl)furan-3-carboxamide] is 69-fold lower in EC50: 23300 nM for the first, 337 nM for the second. The second is the more potent here.

`O=C(NCCc1c[nH]c2ccc(Cl)cc12)c1cc(Cc2cccc(F)c2F)on1` [Example D130, N-(2-(5-chloro-1H-indol-3-yl)ethyl)-5-(2,3-difluorobenzyl)isoxazole-3-carboxamide] and `Cc1cccc(Cc2cc(C(=O)NCCc3c[nH]c4ccc(Cl)cc34)no2)c1` [Example D20, N-(2-(5-chloro-1H-indol-3-yl)ethyl)-5-(3-methylbenzyl)isoxazole-3-carboxamide] are within 1.5-fold of each other in EC50: 20 nM for the first, 23 nM for the second.

Compared with `CN(C)c1cc(C(=O)NCCc2c[nH]c3ccc(Cl)cc23)no1` [Example D124, N-(2-(5-chloro-1H-indol-3-yl)ethyl)-5-(dimethylamino)isoxazole-3-carboxamide], `Cn1nc(C(=O)NCCc2c[nH]c3ccc(Cl)cc23)cc1-c1cccs1` [Example D15, N-(2-(5-chloro-1H-indol-3-yl)ethyl)-1-methyl-5-(thiophen-2-yl)-1H-pyrazole-3-carboxamide] is 250-fold lower in EC50: 5290 nM for the first, 21 nM for the second. The second is the more potent here.

`O=C(NCCc1c[nH]c2ccc(Cl)cc12)N1CCN(Cc2ccccc2)C1` [Example D69, 3-benzyl-N-(2-(5-chloro-1H-indol-3-yl)ethyl)imidazolidine-1-carboxamide] and `O=C(NCCc1c[nH]c2ccc(Cl)cc12)N1CCC(Cc2ccccc2)C1` (stereo not shown) [Example D75, 3-benzyl-N-(2-(5-chloro-1H-indol-3-yl)ethyl)pyrrolidine-1-carboxamide] are within 1.5-fold of each other in EC50: 357 nM for the first, 534 nM for the second.

First: Cc1ccc(-c2nc(C)c(C(=O)NCCc3c[nH]c4ccccc34)s2)cc1 [Example D24, N-(2-(1H-indol-3-yl)ethyl)-4-methyl-2-p-tolylthiazole-5-carboxamide]
Second: Cc1ccc(-c2nc(C)c(C(=O)NCCc3c[nH]c4ccc(F)cc34)s2)cc1 [Example D37, N-(2-(5-fluoro-1H-indol-3-yl)ethyl)-4-methyl-2-p-tolylthiazole-5-carboxamide]
The EC50 of the first is 1.8-fold lower: 34 nM for the first, 61 nM for the second. The first is the more potent here.

Compared with `Cc1oc(-c2ccccc2)nc1C(=O)NCCc1c[nH]c2ccc(Cl)cc12` [Example D62, N-(2-(5-chloro-1H-indol-3-yl)ethyl)-5-methyl-2-phenyloxazole-4-carboxamide], `Cc1onc(-c2ccccc2)c1C(=O)NCCc1c[nH]c2ccc(Cl)cc12` [Example D111, N-(2-(5-chloro-1H-indol-3-yl)ethyl)-5-methyl-3-phenylisoxazole-4-carboxamide] is 2.5-fold higher in EC50: 237 nM for the first, 582 nM for the second. The first is the more potent here.

`O=C(NCCc1c[nH]c2ccc(Cl)cc12)c1nnc(Cc2ccccc2)o1` [Example D60, 5-benzyl-N-(2-(5-chloro-1H-indol-3-yl)ethyl)-1,3,4-oxadiazole-2-carboxamide] and `O=C(NCCc1c[nH]c2ccc(Cl)cc12)c1nnc(-c2ccccc2)o1` [Example D52, N-(2-(5-chloro-1H-indol-3-yl)ethyl)-5-phenyl-1,3,4-oxadiazole-2-carboxamide] are within 1.5-fold of each other in EC50: 213 nM for the first, 158 nM for the second.

First: N#Cc1ccc(Cc2cc(C(=O)NCCc3c[nH]c4ccc(Cl)cc34)no2)cc1 [Example D4, N-(2-(5-chloro-1H-indol-3-yl)ethyl)-5-(4-cyanobenzyl)isoxazole-3-carboxamide]
Second: O=C(NCCc1c[nH]c2cc(F)ccc12)c1cc(Cc2cccc(F)c2)on1 [Example D47, N-(2-(6-fluoro-1H-indol-3-yl)ethyl)-5-(3-fluorobenzyl)isoxazole-3-carboxamide]
The EC50 of the first is 15-fold lower: 9 nM for the first, 132 nM for the second. The first is the more potent here.

Going from `O=C(NCCc1c[nH]c2ccc(Cl)cc12)c1noc(Cc2ccc(Cl)c(F)c2)n1` [Example D175, N-(2-(5-chloro-1H-indol-3-yl)ethyl)-5-(4-chloro-3-fluorobenzyl)-1,2,4-oxadiazole-3-carboxamide] to `O=C(NCCc1c[nH]c2ccc(Cl)cc12)c1noc(Cc2ccsc2)n1` [Example D193, N-(2-(5-chloro-1H-indol-3-yl)ethyl)-5-(thiophen-3-ylmethyl)-1,2,4-oxadiazole-3-carboxamide], the EC50 falls from 94 nM to 49 nM (1.9-fold). The second is the more potent here.

Compared with `Cc1cc(C(=O)NCCc2c[nH]c3ccccc23)c(C)n1C1CC1` [Example D72, N-(2-(1H-indol-3-yl)ethyl)-1-cyclopropyl-2,5-dimethyl-1H-pyrrole-3-carboxamide], `O=C(NCCc1c[nH]c2ccc(Cl)cc12)C1=NC(c2ccccc2)CO1` (stereo not shown) [Example D83, N-(2-(5-chloro-1H-indol-3-yl)ethyl)-4-phenyl-4,5-dihydrooxazole-2-carboxamide] is 2.2-fold higher in EC50: 453 nM for the first, 979 nM for the second.

Compared with `Cn1cc(CCNC(=O)c2cc(Cc3cccc(F)c3)on2)c2cc(Cl)ccc21` [Example D51, N-(2-(5-chloro-1-methyl-1H-indol-3-yl)ethyl)-5-(3-fluorobenzyl)isoxazole-3-carboxamide], `Cc1cc2c(CCNC(=O)c3cc(Cc4cc(F)ccc4F)on3)c[nH]c2cc1Cl` [Example D136, N-(2-(6-chloro-5-methyl-1H-indol-3-yl)ethyl)-5-(2,5-difluorobenzyl)isoxazole-3-carboxamide] is 4.7-fold higher in EC50: 157 nM for the first, 741 nM for the second.

Compared with `O=C(NCCc1c[nH]c2ccc(Cl)cc12)C1CC(c2ccccc2)=NO1` (stereo not shown) [Example D50, N-(2-(5-chloro-1H-indol-3-yl)ethyl)-3-phenyl-4,5-dihydroisoxazole-5-carboxamide], `Cn1nc(C(=O)NCCc2c[nH]c3ccc(Cl)cc23)cc1-c1ccccc1` [Example D26, N-(2-(5-chloro-1H-indol-3-yl)ethyl)-1-methyl-5-phenyl-1H-pyrazole-3-carboxamide] is 4-fold lower in EC50: 151 nM for the first, 38 nM for the second.

Going from `COc1ccc2[nH]cc(CCNC(=O)c3c(-c4ccccc4)noc3C)c2c1` [Example D109, N-(2-(5-methoxy-1H-indol-3-yl)ethyl)-5-methyl-3-phenylisoxazole-4-carboxamide] to `COc1ccccc1Cc1nc(C(=O)NCCc2c[nH]c3ccc(Cl)cc23)no1` [Example D183, N-(2-(5-chloro-1H-indol-3-yl)ethyl)-5-(2-methoxybenzyl)-1,2,4-oxadiazole-3-carboxamide], the EC50 falls from 3110 nM to 47 nM (66-fold).

`Cc1nc(NCCc2ccccc2)sc1C(=O)NCCc1c[nH]c2ccccc12` [Example D39, N-(2-(1H-indol-3-yl)ethyl)-4-methyl-2-(phenethylamino)thiazole-5-carboxamide] was tested, and the EC50 was 87 nM.

same assay, conditions: reduction of LDH activity of retinoic acid incubated M17-TAU P301L cells, 7 days

`CC(c1ccccc1)N1CCC(C(=O)NCCc2c[nH]c3ccc(Cl)cc23)C1=O` (single isomer, unassigned) [D156 Fraction B, N-(2-(5-chloro-1H-indol-3-yl)ethyl)-2-oxo-1-(1-phenylethyl)pyrrolidine-3-carboxamide] showed an EC50 of 1180 nM.
